The values below come from patent publication EP0289450A1, “15-Alkyl-19-thio-androst-4-en-3,17 diones, process for their preparation and pharmaceutical compositions containing them” (SCHERING AKTIENGESELLSCHAFT, priority 1987, dated 1988).

The target in the experiment is T1, Aromatase (Rattus norvegicus, UniProt P22443).
T1 construct: Infantile weibliche Ratten reagieren auf PMSG-Behandlung mit einheitlich erhöhter Steroidsynthese; from tissue; host or cells: living infantile female rats (whole animal); estradiol measured in serum by radioimmunoassay
T1 sequence (P22443 1-508): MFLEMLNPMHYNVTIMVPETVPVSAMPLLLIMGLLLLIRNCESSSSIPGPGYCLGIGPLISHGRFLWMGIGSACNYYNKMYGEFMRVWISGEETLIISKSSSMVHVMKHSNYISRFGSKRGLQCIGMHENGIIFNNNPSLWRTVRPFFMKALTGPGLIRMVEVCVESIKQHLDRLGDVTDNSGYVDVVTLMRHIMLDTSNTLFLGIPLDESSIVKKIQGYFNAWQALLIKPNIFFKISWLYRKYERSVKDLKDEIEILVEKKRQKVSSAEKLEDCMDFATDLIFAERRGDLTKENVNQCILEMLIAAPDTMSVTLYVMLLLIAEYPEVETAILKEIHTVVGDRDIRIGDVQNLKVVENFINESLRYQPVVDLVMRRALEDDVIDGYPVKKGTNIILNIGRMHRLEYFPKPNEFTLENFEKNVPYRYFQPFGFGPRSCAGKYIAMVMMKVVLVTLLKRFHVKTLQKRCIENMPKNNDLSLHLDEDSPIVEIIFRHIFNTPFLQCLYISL
The experiment is described as follows: PMSG (Pregnant Mare's Serum Gonadotropin) test: effect on PMSG-stimulated serum estradiol after oral application. The format is in vivo, Ratte. The note with it: 10 mg/Tier 2 x p.o.; for Östradiol-Konzentration in: peripheral serum of PMSG-pretreated infantile female rats, 24 h after last PMSG application, mean ± standard deviation, n = 10; for relative Wirkstärke: relative potency versus compound A (= 1,0), by regression and covariance analysis, rat. An excerpt:
So konnte zum Beispiel im sogenannten PMSG (Pregnant Mare's Serum Gonadotropin)-Test [J. Steroid. Biochem. 7, (1976) 787] gezeigt werden, daß im Vergleich zu dem bekannten Aromatasehemmer 19-Methylthio-4-androsten-3,17-dion (A) die erfindungsgemäßen Verbindungen, wie zum Beispiel 15α-Ethyl-19-methylthio-4-androsten-3,17-dion (B), bei oraler Applikation eine stärkere Wirkung besitzen.
Infantile weibliche Ratten reagieren auf PMSG-Behandlung mit einheitlich erhöhter Steroidsynthese. Die Aromataseaktivität kann durch die Beeinflussung der PMSG-stimulierten Östrogenbildung gemessen werden.
Im PMSG-Test werden 21 Tage alte weibliche Ratten alle 2 Tage insgesamt 7 mal mit je 100 I.U. PMSG subkutan vorbehandelt. 1 Stunde vor und 8 Stunden nach der letzten PMSG-Applikation (d₁₂) erhalten die Tiere die Testsubstanz durch orale Applikation.
Die Kontrolltiere erhalten nur das Vehikel. 24 Stunden nach der letzten PMSG-Applikation werden die Tiere getötet. Im Serum wird Östradiol radioimmunologisch geprüft. Für jede Gruppe von 10 Tieren wird der Mittelwert der Östradiolkonzentration in nMol/l mit der Standardabweichung errechnet. Die Signifikanzen der Unterschiede zur Kontrollgruppe werden durch die Varianzanalyse geprüft.
Zur Ermittlung der relativen Wirkungsstärke der zu testenden Substanz im Vergleich zu der Vergleichssubstanz wird die Regressions- und Kovarianzanalyse durchgeführt. Ferner wird die prozentuale Hemmung gegen die PMSG-Kontrolle berechnet.

The structures appear in SMILES notation.

Consider `CSC[C@]12CCC(=O)C=C1CC[C@@H]1[C@@H]2CC[C@]2(C)C(=O)CC[C@@H]12` [A, 19-Methylthio-4-androsten-3,17-dion], for which the “Östradiol-Konzentration in” value is given as 5,50 ± 0,43 nMol/l and the “relative Wirkstärke” value is 1,0.

Turning to `CC[C@H]1CC(=O)[C@@]2(C)CC[C@H]3[C@@H](CCC4=CC(=O)CC[C@@]43CSC)[C@H]12` [B, 15α-Ethyl-19-methylthio-4-androsten-3,17-dion], the “Östradiol-Konzentration in” value is 4,05 ± 0,36 nMol/l and the “relative Wirkstärke” value was 3,2.
